Reference: patent US9827219B2, “Compositions and methods for lowering levels of high-sensitivity C-reactive protein (HS-CRP) in a subject” (priority 2012, dated 2017)

Legend:
Type in all cases: in vivo, human
[1] = Safety and tolerability (adverse events), AAMI pilot study (Example 1); conditions: for TEAE Probably Related to the study drug: one subject
Protocol: All randomized subjects that received at least 1 dose of study medication were included in the Safety Population.
Safety evaluations were based on the safety population. Safety and tolerability were assessed in terms of AEs, vital signs, 12-lead ECG, clinical laboratory data, medical history, and study drug compliance. Safety and tolerability data were presented by treatment group.

hsCRP [2] = assay: hsCRP in patients with diabetes mellitus-2 (Example 2); conditions: 4 g/day, 12 weeks, on statin
Excerpt: (§1) Parameters (a)-(y) can be measured in accordance with any clinically acceptable methodology. For example, triglycerides, total cholesterol, HDL-C and fasting blood sugar can be sample from serum and analyzed using standard photometry techniques. VLDL-TG, LDL-C and VLDL-C can be calculated or determined using serum lipoprotein fractionation by preparative ultracentrifugation and subsequent quantitative analysis by refractometry or by analytic ultracentrifugal methodology. Apo A1, Apo B and hsCRP can be determined from serum using standard nephelometry techniques. Lipoprotein (a) can be determined from serum using standard turbidimetric immunoassay techniques. LDL particle number and particle size can be determined using nuclear magnetic resonance (NMR) spectrometry. Remnants lipoproteins and LDL-phospholipase A2 can be determined from EDTA plasma or serum and serum, respectively, using enzymatic immunoseparation techniques. Oxidized LDL, intercellular adhesion molecule-1 and interleukin-2 levels can be determined from serum using standard enzyme immunoassay techniques. These techniques are described in detail in standard textbooks, for example Tietz Fundamentals of Clinical Chemistry, 6th Ed. (Burtis, Ashwood and Borter Eds.), WB Saunders Company.
The effect of >96% E-EPA on lipid and inflammatory parameters was evaluated in patients with fasting triglyceride levels ≧150 mg/dl and <499 mg/dl on concomitant statin therapy. Patients with diabetes mellitus-2 were randomized and treated with either 2 g/day >96% E-EPA, 4 g/day >96%, or placebo for twelve weeks. At the end of the treatment period, several diabetes efficacy endpoints were evaluated including, TG, LDL-C, non-HDL-C, VLDL-C, Lp-PLA2, Apo B, TC, HDL-C, VLDL-TG, hs-CRP, oxLDL, and RLP-C.

hsCRP [3] = assay: MARINE study, hsCRP (also by concomitant statin use)
Excerpt: as §1
A multi-center, placebo-controlled randomized, double-blind, 12-week study with an open-label extension was performed to evaluate the efficacy and safety of AMR101 in patients with fasting triglyceride levels ≧500 mg/dL. The primary objective of the study was to determine the efficacy of AMR101 2 g daily and 4 g daily, compared to placebo, in lowering fasting TG levels in patients with fasting TG levels ≧500 mg/dL and ≦1500 mg/dL (≧5.65 mmol/L and ≦16.94 mmol/L).
The population for this study was men and women (women of childbearing potential will need to be on contraception or practice abstinence)>18 years of age with a body mass index ≦45 kg/m^2 who were not on lipid-altering therapy or were currently on lipid-altering therapy. Patients currently on statin therapy (with or without ezetimibe) were evaluated by the investigator as to whether this therapy can be safely discontinued at screening, or if it should be continued. If statin therapy (with or without ezetimibe) was to be continued, dose(s) must have been stable for ≧4 weeks prior to randomization. Patients taking non-statin, lipid-altering medications (niacin >200 mg/day, fibrates, fish oil, other products containing omega-3 fatty acids, or other herbal products or dietary supplements with potential lipid-altering effects), either alone or in combination with statin therapy (with or without ezetimibe), must have been able to safely discontinue non-statin, lipid-altering therapy at screening.
Approximately 240 patients were randomized at approximately 50 centers in North America, South America, Central America, Europe, India, and South Africa. The study was a 58- to 60-week, Phase 3, multi-center study consisting of 3 study periods: (1) A 6- to 8-week screening period that included a diet and lifestyle stabilization and washout period and a TG qualifying period; (2) A 12-week, double-blind, randomized, placebo-controlled treatment period; and (3) A 40-week, open-label, extension period.
After confirmation of qualifying fasting TG values, eligible patients entered a 12-week, randomized, double-blind treatment period. At Visit 4 (Week 0), patients were randomly assigned to 1 of the following treatment groups: • AMR101 2 g daily, • AMR101 4 g daily, or • Placebo.
Eligible patients were randomly assigned at Visit 4 (Week 0) to receive orally AMR101 2 g daily, AMR101 4 g daily, or placebo for the 12-week double-blind treatment period. AMR101 was provided in 1 g liquid-filled, oblong, gelatin capsules. The matching placebo capsule was filled with light liquid paraffin and contained 0 g of AMR101. […]

Lp-PLA2 = assay: MARINE study, Lp-PLA2; conditions: MARINE ITT; 2 g/day; week 12
Excerpt: as §1, with “Company. […]” for “Company.”

ICAM-1 = assay: MARINE study (fasting TG ≧500 mg/dL), ICAM-1; conditions: MARINE ITT, week 12
Excerpt: as §1, with “Company. […]” for “Company.”

CC/C=C\C/C=C\C/C=C\C/C=C\C/C=C\CCCC(=O)OCC [AMR101, all-cis eicosa-5,8,11,14,17-pentaenoic acid ethyl ester]
Subjects with nausea Possibly Related to the study drug ([1]; 1 g cohort): two | TEAE Probably Related to the study drug ([1]; 1 g): nausea | Subjects with nausea Possibly Related to the study drug ([1]; 2 g cohort): one | SAE reported ([1]; 2 g treatment group): One | Subjects discontinued due to TEAEs ([1]; 2 g treatment group): 2 subjects | Subjects with nausea Possibly Related to the study drug ([1]; 4 g cohort): two | TEAE Probably Related to the study drug ([1]; 4 g): diarrhea | Deaths during the study ([1]; all groups): no deaths | TEAEs Definitely Related to the study drug ([1]; all groups): No TEAEs were Definitely Related | Treatment emergent AEs (TEAEs) reported ([1]; ethyl-EPA treatment groups (1, 2, 4 g), 6 weeks, placebo groups 34 events): 105 events | Relatedness of the SAE (worsening epigastric chest pain) ([1]; one subject receiving 2 g): unrelated to the study drug | Severity and relatedness of most TEAEs ([1]; whole study): mild in severity and unrelated to study drug | Median placebo-adjusted percent change in hsCRP from baseline to study end (hsCRP [2]; less-controlled diabetes (HbA1c ≧ median of 6.8%)): −34.6% | Median placebo-adjusted percent change in hsCRP from baseline to study end (hsCRP [2]; total diabetes): −21.5% | Median placebo-adjusted percent change in hsCRP from baseline to study end (hsCRP [2]; well-controlled diabetes (HbA1c < median of 6.8%)): −4.0% | hsCRP end-of-treatment value, median (hsCRP [3]; MARINE ITT, 2 g/day, week 12): 2.4 mg/L | hsCRP change from baseline (median) (hsCRP [3]; MARINE ITT, 4 g/day, week 12): −2.5% | hsCRP end-of-treatment value, median (hsCRP [3]; MARINE ITT, 4 g/day, week 12): 2.2 mg/L | hsCRP median placebo-adjusted % change from baseline (hsCRP [3]; MARINE, no statin, AMR101 2 g/day vs placebo, P 0.8297): −2.7% | hsCRP change from baseline, median % (hsCRP [3]; MARINE, no statin, AMR101 2 g/day, week 12): 31.7% | hsCRP end-of-treatment value, median (hsCRP [3]; MARINE, no statin, AMR101 2 g/day, week 12, baseline 2.2): 2.5 mg/L | hsCRP median placebo-adjusted % change from baseline (hsCRP [3]; MARINE, no statin, AMR101 4 g/day vs placebo, P 0.0311): −27.4% | hsCRP change from baseline, median % (hsCRP [3]; MARINE, no statin, AMR101 4 g/day, week 12): 0.0% | hsCRP end-of-treatment value, median (hsCRP [3]; MARINE, no statin, AMR101 4 g/day, week 12, baseline 2.2): 2.2 mg/L | hsCRP median placebo-adjusted % change from baseline (hsCRP [3]; MARINE, statin, AMR101 2 g/day vs placebo, P 0.1707): −33.2% | hsCRP change from baseline, median % (hsCRP [3]; MARINE, statin, AMR101 2 g/day, week 12): 11.7% | hsCRP end-of-treatment value, median (hsCRP [3]; MARINE, statin, AMR101 2 g/day, week 12, baseline 1.5): 1.6 mg/L | hsCRP median placebo-adjusted % change from baseline (hsCRP [3]; MARINE, statin, AMR101 4 g/day vs placebo, P 0.0098): −67.9% | hsCRP change from baseline, median % (hsCRP [3]; MARINE, statin, AMR101 4 g/day, week 12): −30.6% | hsCRP end-of-treatment value, median (hsCRP [3]; MARINE, statin, AMR101 4 g/day, week 12, baseline 1.9): 1.3 mg/L | hsCRP median placebo-adjusted change from baseline (hsCRP [3]; MARINE, 2 g/day, with concomitant statin therapy): statistically insignificant | hsCRP median placebo-adjusted change from baseline (hsCRP [3]; MARINE, 2 g/day, without concomitant statin therapy): statistically insignificant | hsCRP median placebo-adjusted change from baseline (hsCRP [3]; MARINE, 4 g/day, with concomitant statin therapy): −67.9% | hsCRP median placebo-adjusted change from baseline (hsCRP [3]; MARINE, 4 g/day, without concomitant statin therapy): −27.4% | Lp-PLA2 change from baseline (median) (Lp-PLA2): −5.1% | ICAM-1 change from baseline (median) (ICAM-1; 2 g/day): −0.4% | ICAM-1 change from baseline (median) (ICAM-1; 4 g/day): −0.9%
